Laboratory results from patent publication US20220357332A1, “TRIPHENYLENE DERIVATIVES FOR USE IN IMAGING BIOLOGICAL TISSUE OR FLUID” (CHROMATWIST LIMITED, priority 2019, published 2022).

Assays:
[1] = Luminescent data (absorption, emission, quantum yield, brightness) in solvents; type: physicochemical
Excerpt: Referring now to Table 1, there is shown luminescent data for Compounds 1 to 6.

[2] = Solubility (statements in words); type: physicochemical
human liver = settings: 45 min, 1 μg/ml
Experimental: All fluorophores were testing using donated human tissue which had been previously rejected for transplantation. All reagents were diluted in pre-warmed Dulbecos Modified Eagles Medium (DMEM) or CO2-independent media (both Invitrogen) to working concentrations and then perfused into pieces of liver for 45 min. Membrane and nuclear dyes were used simultaneously to visualise other cellular structures within the liver. Tissues were then imaged using multiphoton microscopy (825 nm). All fluorophores were used at 1 μg/ml (giving 0.1% of vehicle, being DMSO or THF). Testing of TpOx-2-Nap (green fluorophore) was done using DMSO as a solvent. […] was used for comparison, having been perfused through a separate piece of tissue from the same donor.

[3] = Luminescence data for pairs of compounds absorbing at the same wavelength and emitting at different wavelengths; type: physicochemical; settings: for ε × 10^3 (M^−1 cm^−1) at 355 nm / ε × 10^3 (M^−1 cm^−1) at 405 nm / ε × 10^3 (M^−1 cm^−1) at λMax / Absorption λMax / Emission λMax: solvent not given
Excerpt: Referring now to Tables 2 to 4, there is provided luminescence data for pairs of compounds which are capable of absorbing at the same wavelength and emitting at different wavelengths.

Huh-7 cells = settings: 1 hr, Huh-7 cells labelled with CMFDA
Excerpt: To test the relative toxicity of tetrahydrofuran (THF) for liver cells, Huh-7 cells (hepatoma cell line used for a model of hepatocytes) were labelled with CMFDA (CellTracker Green, in DMSO, Invitrogen) and then treated with half log concentrations of THF (0.1%, 0.3%, 1%, 3%) for 1 hr. Cells were then imaged live using a Zeiss primovert fluorescence microscope.

[4] = Acetonitrile (ϵr 37.5, viscosity 0.38 cP)
[5] = Ethyl acetate (ϵr 6.0, viscosity 0.45 cP)
[6] = Octan-1-ol (ϵr 10.3, viscosity 7.36 cP)

SMILES	Absorption λmax [1, 4] [nm]	Brightness [1, 4] [M⁻¹ cm⁻¹]	Emission λmax [1, 4] [nm]	pSS [1, 4] [cm^−1]	Φ [1, 4]	Absorption λmax [1, 5] [nm]	Brightness [1, 5] [M⁻¹ cm⁻¹]	Emission λmax [1, 5] [nm]	pSS [1, 5] [cm^−1]	Φ [1, 5]	Absorption λmax [1, 6] [nm]	Brightness [1, 6] [M⁻¹ cm⁻¹]	Emission λmax [1, 6] [nm]	pSS [1, 6] [cm^−1]	Φ [1, 6]	QY [3]	pSS (cm^−1) [3] [cm^−1]	pSS (nm) [3] [nm]	Absorption % Abs at 355 nm [3] [%]	Absorption % Abs at 405 nm [3] [%]	also measured
CCCCCOc1cc2c3cc(OCCCCC)c(OCCCCC)cc3c3c(cc(OCCCCC)c4oc(CCCC)nc43)c2cc1OCCCCC [Compound 1, 8-butyl-2,3,6,11,12-pentakis(pentyloxy)triphenyleno[1,2-d]oxazole]	281	12 ± 2	367	8300	0.20 ± 0.02	281	29 ± 5	367	8300	0.18 ± 0.01	281	36 ± 7	367	8300	0.30 ± 0.03	–	–	–	–	–	–
CCCCCOc1cc2c3cc(OCCCCC)c(OCCCCC)cc3c3c(cc(OCCCCC)c4oc(-c5ccccc5)nc43)c2cc1OCCCCC [Compound 2, 2,3,6,11,12-pentakis(pentyloxy)-8-phenyltriphenyleno[1,2-d]oxazole]	270	38 ± 4	492	16700	0.46 ± 0.04	270	51 ± 5	467	15600	0.46 ± 0.04	271	64 ± 6	473	15800	0.61 ± 0.06	–	–	–	–	–	–
CCCCCOc1cc2c3cc(OCCCCC)c(OCCCCC)cc3c3c(cc(OCCCCC)c4oc(-c5ccc6ccccc6c5)nc43)c2cc1OCCCCC [Compound 3, 8-(naphthalen-2-yl)-2,3,6,11,12-pentakis(pentyloxy)triphenyleno[1,2-d]oxazole]	273	44 ± 4	524	17600	0.51 ± 0.05	272	92 ± 9	494	16500	0.55 ± 0.05	272	91 ± 9	497	16600	0.71 ± 0.07	0.55	16500	222	17	7	Solubility with DMSO as solvent ([2]; DMSO as a solvent, diluted in medium to 1 μg/ml): limited solubility; Uptake by hepatocytes (human liver): Diffuse green fluorescence (12) was observed within the cytoplasm of the hepatocytes; ε × 10^3 (M^−1 cm^−1) at 355 nm [3]: 29 × 10^3 M^−1 cm^−1; ε × 10^3 (M^−1 cm^−1) at 405 nm [3]: 13 × 10^3 M^−1 cm^−1; ε × 10^3 (M^−1 cm^−1) at λMax [3]: 164 × 10^3 M^−1 cm^−1; Absorption λMax [3]: 272 nm; Emission λMax [3]: 494 nm
CCCCCOc1cc2c3cc(OCCCCC)c(OCCCCC)cc3c3c(cc(OCCCCC)c4oc(-c5cccc6ccccc56)nc43)c2cc1OCCCCC [Compound 4, 8-(naphthalen-1-yl)-2,3,6,11,12-pentakis(pentyloxy)triphenyleno[1,2-d]oxazole]	275	30 ± 3	543	18000	0.36 ± 0.04	275	56 ± 5	510	16800	0.48 ± 0.04	275	67 ± 7	515	17000	0.55 ± 0.05	–	–	–	–	–	–
CCCCCOc1cc2c3cc(OCCCCC)c(OCCCCC)cc3c3c(cc(OCCCCC)c4oc(-c5ccc6cc7ccccc7cc6c5)nc43)c2cc1OCCCCC [Compound 5, 8-(anthracen-2-yl)-2,3,6,11,12-pentakis(pentyloxy)triphenyleno[1,2-d]oxazole]	270	–	592	20200	0.21 ± 0.02	272	53 ± 5	536	18100	0.51 ± 0.04	270	50 ± 5	526	18000	0.56 ± 0.05	–	–	–	–	–	–
CCCCCOc1cc2c3cc(OCCCCC)c(OCCCCC)cc3c3c(cc(OCCCCC)c4oc(-c5c6ccccc6cc6ccccc56)nc43)c2cc1OCCCCC [Compound 6, 8-(anthracen-9-yl)-2,3,6,11,12-pentakis(pentyloxy)triphenyleno[1,2-d]oxazole]	253	–	630	23650	–	253	–	594	22700	–	255	–	384	13200	–	–	–	–	–	–	–
CCCCCOc1cc2c3cc(OCCCCC)c(OCCCCC)cc3c3c(cc(OCCCCC)c4oc(-c5ccc(C#N)cc5)nc43)c2cc1OCCCCC [Compound 12, 4-(2,3,6,11,12-pentakis(pentyloxy)triphenyleno[1,2-d]oxazol-8-yl)benzonitrile]	–	–	–	–	–	–	–	–	–	–	–	–	–	–	–	0.32	18800	286	12	14	ε × 10^3 (M^−1 cm^−1) at 355 nm [3]: 13 × 10^3 M^−1 cm^−1; ε × 10^3 (M^−1 cm^−1) at 405 nm [3]: 14 × 10^3 M^−1 cm^−1; ε × 10^3 (M^−1 cm^−1) at λMax [3]: 103 × 10^3 M^−1 cm^−1; Absorption λMax [3]: 272 nm; Emission λMax [3]: 558 nm
CCCCCOc1cc2c3cc(OCCCCC)c(OCCCCC)cc3c3c(cc(OCCCCC)c4oc(-c5ccc(N(C)C)cc5)nc43)c2cc1OCCCCC [Compound 22, N,N-dimethyl-4-(2,3,6,11,12-pentakis(pentyloxy)triphenyleno[1,2-d]oxazol-8-yl)aniline]	–	–	–	–	–	–	–	–	–	–	–	–	–	–	–	0.70	13150	150	54	2	ε × 10^3 (M^−1 cm^−1) at 355 nm [3]: 39 × 10^3 M^−1 cm^−1; ε × 10^3 (M^−1 cm^−1) at 405 nm [3]: 1.5 × 10^3 M^−1 cm^−1; ε × 10^3 (M^−1 cm^−1) at λMax [3]: 72 × 10^3 M^−1 cm^−1; Absorption λMax [3]: 271 nm; Emission λMax [3]: 421 nm
CCCCCOc1cc2c(cc1OCCOCCOCCOC)c1cc(OCCOCCOCCOC)c(OCCOCCOCCOC)cc1c1cc(OCCOCCOCCOC)c3oc(C)nc3c21 [Compound 32, 2,3,6,12-tetrakis(2-(2-(2-methoxyethoxy)ethoxy)ethoxy)-8-methyl-11-(pentyloxy)triphenyleno[1,2-d]oxazole]	–	–	–	–	–	–	–	–	–	–	–	–	–	–	–	–	–	–	–	–	Water solubility ([2]; water): water soluble
CCCCCOc1cc2c3cc(OCCCCC)c(OCCCCC)cc3c3c(cc(OCCCCC)c4oc(-c5ccc(OC)cc5)nc43)c2cc1OCCCCC [Compound 45, 8-(4-methoxyphenyl)-2,3,6,11,12-pentakis(pentyloxy)triphenyleno[1,2-d]oxazole]	–	–	–	–	–	–	–	–	–	–	–	–	–	–	–	0.40	14000	174	22	0	ε × 10^3 (M^−1 cm^−1) at 355 nm [3]: 21 × 10^3 M^−1 cm^−1; ε × 10^3 (M^−1 cm^−1) at 405 nm [3]: 0 × 10^3 M^−1 cm^−1; ε × 10^3 (M^−1 cm^−1) at λMax [3]: 97 × 10^3 M^−1 cm^−1; Absorption λMax [3]: 270 nm; Emission λMax [3]: 444 nm
C1CCOC1 [THF, tetrahydrofuran]	–	–	–	–	–	–	–	–	–	–	–	–	–	–	–	–	–	–	–	–	Toxicity for liver cells (cell culture compared to the reference) (Huh-7 cells; 0.1% and 0.3% THF): no differences in the cell culture compared to the reference; Toxicity for liver cells (dead cells) (Huh-7 cells; 1% and 3% THF): increasing number of dead cells
